Numbers after ± are expanded uncertainties.
Legend:
[1] = refractive index (Na D-line) (dimensionless); settings: 298.15 K; 101.33 kPa; Liquid; Standard Abbe refractometry
[2] = 298.15 K; 101.33 kPa; Liquid
[3] = xn = mol fraction of the nth substance listed; settings: 101 kPa, Liquid

Cc1ccccc1C [1,2-dimethylbenzene]
Settings | mass density [kg/m3] | refractive index
[1] | – | 1.5057 ± 0.0007
[2] | 875.73 ± 0.34 | –

Cc1cccc(C)c1 [1,3-dimethylbenzene]
Settings | mass density [kg/m3] | refractive index
[1] | – | 1.4973 ± 0.0008
[2] | 859.83 ± 1.6 | –

Cc1ccc(C)cc1 [1,4-dimethylbenzene]
Settings | mass density [kg/m3] | refractive index
[1] | – | 1.4958 ± 0.0008
[2] | 856.58 ± 0.85 | –

Cc1ccc(C)cc1 [1,4-dimethylbenzene] + CN(C)C=O
[3]
Settings | mass density [kg/m3]
293.15 K, x1 = 0.0562 | 941.87 ± 0.34
293.15 K, x1 = 0.1211 | 934.47 ± 0.37
293.15 K, x1 = 0.1885 | 927.18 ± 0.39
293.15 K, x1 = 0.2532 | 920.51 ± 0.41
293.15 K, x1 = 0.3225 | 913.72 ± 0.43
293.15 K, x1 = 0.3865 | 907.74 ± 0.46
293.15 K, x1 = 0.4525 | 901.85 ± 0.48
293.15 K, x1 = 0.5121 | 896.75 ± 0.5
293.15 K, x1 = 0.5853 | 890.75 ± 0.52
293.15 K, x1 = 0.6441 | 886.12 ± 0.54
293.15 K, x1 = 0.7154 | 880.72 ± 0.56
293.15 K, x1 = 0.7664 | 876.98 ± 0.58
293.15 K, x1 = 0.8353 | 872.08 ± 0.6
293.15 K, x1 = 0.8901 | 868.29 ± 0.62
293.15 K, x1 = 0.9577 | 863.74 ± 0.64
303.15 K, x1 = 0.0625 | 931.96 ± 0.37
303.15 K, x1 = 0.1321 | 924.04 ± 0.39
303.15 K, x1 = 0.1912 | 917.66 ± 0.41
303.15 K, x1 = 0.2684 | 909.75 ± 0.44
303.15 K, x1 = 0.3325 | 903.53 ± 0.46
303.15 K, x1 = 0.3965 | 897.61 ± 0.48
303.15 K, x1 = 0.4584 | 892.15 ± 0.5
303.15 K, x1 = 0.5214 | 886.82 ± 0.52
303.15 K, x1 = 0.5853 | 881.64 ± 0.54
303.15 K, x1 = 0.6485 | 876.73 ± 0.56
303.15 K, x1 = 0.7112 | 872.04 ± 0.58
303.15 K, x1 = 0.7866 | 866.61 ± 0.61
303.15 K, x1 = 0.8415 | 862.79 ± 0.62
303.15 K, x1 = 0.9054 | 858.48 ± 0.65
303.15 K, x1 = 0.9658 | 854.51 ± 0.67
313.15 K, x1 = 0.0455 | 924.59 ± 0.38
313.15 K, x1 = 0.1112 | 916.97 ± 0.4
313.15 K, x1 = 0.1862 | 908.77 ± 0.43
313.15 K, x1 = 0.2562 | 901.56 ± 0.45
313.15 K, x1 = 0.3215 | 895.19 ± 0.48
313.15 K, x1 = 0.3952 | 888.37 ± 0.5
313.15 K, x1 = 0.4514 | 883.43 ± 0.52
313.15 K, x1 = 0.5111 | 878.4 ± 0.54
313.15 K, x1 = 0.5841 | 872.52 ± 0.56
313.15 K, x1 = 0.6451 | 867.83 ± 0.58
313.15 K, x1 = 0.7124 | 862.86 ± 0.6
313.15 K, x1 = 0.7854 | 857.69 ± 0.62
313.15 K, x1 = 0.8451 | 853.61 ± 0.64
313.15 K, x1 = 0.9011 | 849.9 ± 0.66
313.15 K, x1 = 0.9655 | 845.75 ± 0.68

CN(C)C=O [dimethylformamide]
Settings | mass density [kg/m3] | refractive index
[1] | – | 1.4307 ± 0.0007
[2] | 943.85 ± 0.23 | –
